Measurements: patent publication US5663149A, “Human cancer inhibitory pentapeptide heterocyclic and halophenyl amides” (priority 1994, dated 1997)

Experiments:
[1] = system: P388 Lymphocytic Leukemia; experiment: Murine in vivo system, P388 Lymphocytic Leukemia; conditions: P388, dose 13.0 μg/kg
Description: (§1) Experimental Anti-cancer Activity of Dolastatin 10 in Murine in vivo Systems, T/C (μg/kg)

[2] = system: M5076 Ovary Sarcoma; experiment: Murine in vivo system, M5076 Ovary Sarcoma; conditions: M5076, dose 26 μg/kg
Description: as §1

[3] = system: LOX Human Melanoma Xenograft; experiment: LOX Human Melanoma Xenograft in nude mouse; type: in vivo; conditions: dose 52 μg/kg
Description: as §1

[4] = system: Human Mammary Xenograft; experiment: Human Mammary Xenograft in nude mouse; type: in vivo; conditions: dose 26 μg/kg
Description: as §1

[5] = system: OVCAR-3 (Ovarian); experiment: NCI human tumor cell line growth inhibition, OVCAR-3; type: cell-based; conditions: Ovarian OVCAR-3, 48 hours
Experimental: (§2) The only difference is historical usage.
(§3) Percent Growths are calculated for each dose.
(§4) This is the "baseline count", or "Tzero reading".

[6] = system: SF-295 (CNS); experiment: NCI human tumor cell line growth inhibition, SF-295; type: cell-based; conditions: CNS SF-295, 48 hours
Experimental: as §2, §3, §4

[7] = system: NCI-H460 (Lung-NSC); experiment: NCI human tumor cell line growth inhibition, NCI-H460; type: cell-based; conditions: Lung-NSC NCI-H460, 48 hours
Experimental: as §2, §3, §4

[8] = system: KM20L2 (Colon); experiment: NCI human tumor cell line growth inhibition, KM20L2; type: cell-based; conditions: Colon KM20L2, 48 hours
Experimental: as §2, §3, §4

[9] = system: SK-MEL-5 (Melanoma); experiment: NCI human tumor cell line growth inhibition, SK-MEL-5; type: cell-based; conditions: for GI-50 / LC-50 / TGI: Melanoma SK-MEL-5, 48 hours
Experimental: as §2, §3, §4

[10] = system: PS-388 (Mouse Leukemia); experiment: P-388 mouse leukemia cell growth inhibition; type: cell-based; conditions: Mouse Leukemia PS-388
Experimental: as §2, §3, §4

[11] = system: A498 (Renal); conditions: Renal A498, 48 hours;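 also: NCI protocol, compound given at five doses from 0.01 to 100 µg/ml, percent growth versus untreated controls relative to cell count at time zero, regression on log dose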
Description: The following measures are used to express drug activity by giving the drug dose which reduces cell growth to a specified percentage of growth:
There is no mathematical difference between ED50 and GI50, which are both calculated using the same formula. The only difference is historical usage.
TGI, (Total Growth Inhibition), is the drug dose needed to yield zero percent growth, i.e., just as many cells at the end of the experiment as were present in the beginning. Whether just as many cells were killed as were produced (steady state), or no growth occurred (total inhibition), cannot be distinguished.
Each drug is tested at five (5) doses: 100-10-1-0.1-0.01 μg/ml. Percent Growths are calculated for each dose. […] The log of the dose is used during the regression computation.
At the start of an experiment, cells from the in vitro cell cultures are inoculated into the appropriate tubes or microtiter plates. One set of control tubes/plates is immediately counted to determine the number of cells at the start of the experiment. This is the "baseline count", or "Tzero reading". At the end of the experiment (48 hours later) a second set of control tubes/plates is analyzed to determine the "Control Growth" value. The growth (or death) of cells relative to the initial quantity of cells is used to define the "Percent of Growth".

Compound	GI-50 [5] [µg/mL]	LC-50 [5] [µg/mL]	TGI [5] [ng/mL]	GI-50 [6] [µg/mL]	LC-50 [6] [µg/mL]	TGI [6] [ng/mL]	GI-50 [7] [µg/mL]	LC-50 [7] [µg/mL]	TGI [7] [ng/mL]	GI-50 [8] [µg/mL]	LC-50 [8] [µg/mL]	TGI [8] [ng/mL]	GI-50 [9] [µg/mL]	LC-50 [9] [µg/mL]	TGI [9] [ng/mL]	ED-50 [10] [µg/mL]	GI-50 [11] [µg/mL]	LC-50 [11] [µg/mL]	TGI [11] [ng/mL]	also measured
CC[C@H](C)[C@@H]([C@@H](CC(=O)N1CCC[C@H]1[C@H](OC)[C@@H](C)C(=O)N[C@@H](Cc1ccccc1)c1nccs1)OC)N(C)C(=O)[C@@H](NC(=O)[C@H](C(C)C)N(C)C)C(C)C [Dolastatin 10]																				T/C outcome: toxic [1]: toxic; T/C outcome: toxic [2]: toxic; T/C outcome: toxic [3]: toxic; T/C outcome: toxic [4]: Toxic
L-Dolavalyl-L-Valyl-N-Methyl-(S,S,R)-Dolaisoleuinyl-(S,R,R)-Dolaproinyl-L- Phenylalanine N-2,5-Dichlorophenyl Amide [9h]	0.0000031	> 0.0001	0.017	0.0000036	> 0.0001	> 0.1	0.0000029	> 0.0001	0.012	0.0000042	> 0.0001	0.037	0.0000031	> 0.0001	> 0.1	0.0000482	0.000016	> 0.0001	> 0.1	
L-Dolavalyl-L-Valyl-N-Methyl-(S,S,R)-Dolaisoleuinyl-(S,R,R)-Dolaproinyl-L- Phenylalanine N-2-(6-Chloro)benzothiazole Amide [9k]	0.0000043		0.027	0.000022		> 0.1	0.0000044		0.063	0.000022		0.072	0.000003		> 0.1	0.000383	0.000031		> 0.1	
L-Dolavalyl-L-Valyl-N-Methyl-(S,S,R)-Dolaisoleuinyl-(S,R,R)-Dolaproinyl-L- Phenylalanine N-2-(6-Fluoro)benzothiazole Amide [9j]	0.0000031		0.012	0.0000044		> 0.1	0.0000041		0.036	0.0000033		0.013	0.0000013		> 0.1	0.000227	0.000016		> 0.1	
L-Dolavalyl-L-Valyl-N-Methyl-(S,S,R)-Dolaisoleuinyl-(S,R,R)-Dolaproinyl-L- Phenylalanine N-3-Chlorophenyl Amide [9d]	0.000018	> 0.01	0.16	0.000041	> 0.01	> 1	0.0000094	> 0.01	0.11	0.000007	> 0.01	0.19	< 1e-12	> 0.01	5.1	0.00258	0.00012	> 0.01	> 1	human tumor inhibiting activity ([9]; Melanoma SK-MEL-5 cell line, statement in words): unprecedented and extraordinary human tumor inhibiting activity
L-Dolavalyl-L-Valyl-N-Methyl-(S,S,R)-Dolaisoleuinyl-(S,R,R)-Dolaproinyl-L- Phenylalanine N-4-Chlorophenyl Amide [9f]	0.0000014	> 0.0001	0.0056	0.0000025	> 0.0001	> 0.1	0.0000018	> 0.0001	0.01	0.0000029	> 0.0001	0.0084	0.0000002	> 0.0001	0.047	0.0000452	0.000007	> 0.0001	> 0.1	
L-Dolavalyl-L-Valyl-N-Methyl-(S,S,R)-Dolaisoleuinyl-(S,R,R)-Dolaproinyl-L- Proline N-2-Benzothiazole Amide [9n]	0.000027		0.079	0.000035		> 0.1	0.000031		> 0.1	0.000029		> 0.1	0.0000098		> 0.1	0.00083	0.000081		> 0.1	
L-Dolavalyl-L-Valyl-N-Methyl-(S,S,R)-Dolaisoleuinyl-(S,R,R)-Dolaproinyl-L- Proline N-3-Quinoline Amide [9q]	0.000086	> 0.0001	> 0.1	0.00036	> 0.0001	> 0.1	0.0003	> 0.0001	> 0.1	0.00033	> 0.0001	> 0.1	0.00011	> 0.0001	> 0.1	0.000415	0.00041	> 0.0001	> 0.1	
L-Dolavalyl-L-Valyl-N-Methyl-(S,S,R)-Dolaisoleuinyl-(S,R,R)-Dolaproinyl-L- Valine N-3-Quinoline Amide [9r]	0.000019	> 0.0001	0.069	0.000027	> 0.0001	> 0.1	0.000026	> 0.0001	> 0.1	0.000031	> 0.0001	> 0.1	0.0000057	> 0.0001	> 0.1	0.0041	0.000051	> 0.0001	> 0.1	
